Test results: US7420060B2, “Benzopyran derivatives substituted with a thioxobenzoxazole derivative, pharmaceutically acceptable salts thereof, their preparations and pharmaceutical compositions containing them” (Schaeffler KG, priority 2003, dated 2008)

Tests used:
[1] = system: ischemic heart isolated from white rat; assay: Cardioprotective effect on isolated ischemic rat heart (Langendorff, 30 min global ischemia / 30 min reperfusion); conditions: 10 μM; for LDH (concentration of lactate dehydogenase): after 30 min reperfusion; for EDP (left ventricular end diastolic pressure): after reperfusion, baseline set at 5 mmHg; for LVDP × HR (left ventricular developed pressure × heart rate): reperfusion DP as % of pre-treatment DP, 30 min after reperfusion
Experimental: 100 mg/kg of sodium pentobarbital was injected in abdominal cavity of white male rats (300˜450 g, obtained form the experimental animal team of the Korea Research Institute of Chemical Technology) to anesthetize them. Then, an intravenous injection of 1000 U/kg of heparin was performed before taking out heart. Particularly, cannula(PE 240) was inserted in the trachea, and artificial respiration was tried upon the rat by using a rodent ventilator. Under that condition, aortic cannula was inserted in the aorta and heart was taken out under retrograde perfusion. The extracted heart was hung on Langendorff apparatus quickly and unnecessary tissues on heart were removed. Perfusion was induced under static pressure (85 mmHg) with 37° C. modified Krebs-Henseleit bicarbonate buffer (composition <mM/L>: 116 NaCl, 4.7 KCl, 1.1 MgSO4, 1.17 KH2PO4, 24.9 NaHCO3, 2.52 CaCl2, 8.32 Glucose, 2.0 Pyruvate) saturated with 95% O2/5% CO2. A metal cannula, to which a latex balloon filled with an ethanol-distilled water mixture (1:1 vol/vol) was linked, was inserted in left ventricle through pulmonary vein. Then, left ventricular pressure transmitted through the balloon was transduced by using pressure transducer, and amplified by using Plugsys bridge amplifier isovolumetrically. Then, the pressure was recorded in a recorder (Linearcorder mark 8 WR 3500). Thereafter, heart was stabilized for 15 minutes. Then, left ventricular end diastolic pressure (LVEDP) was given by 5 mmHg and such volume of the balloon was kept all through the experiments.
Baseline cardiac contractile function, heart rate (HR), and coronary flow (CF) were measured. Cardiac contractile function was calculated by […], yielding LVDP (left ventricular developed pressure). Double product RPP (rate-pressure product)(DP), another important parameter for indirectly assessing cardiac performance in Langendorff heart, whose cardiac output could not be measured ordinarily, was calculated by multiplying HR by LVDP. Throughout the experiment, total coronary blood flow was measured by the use of coronary flow probe (diameter: 1.0 mm) installed in aortic cannula with electromagnetic flowmeter. Temperature of heart was steadily maintained by immersing the heart at 37° C. in physiological saline solution to which 95% O2/5% CO2 was constantly supplied. After stabilization for 15 min, the hearts were pre-treated for 10 min with vehicle (0.04% DMSO) only or a compound of the present invention or the control material in the vehicle. Thereafter, cardiac contractile function, HR and CF were repeatedly measured. Global ischemia was induced by completely shutting off the perfusate for 30 min. Severity of ischemia was determined as the time to contracture (TTC, min) during global ischemia in which the first 5 mmHg increase in EDP was observed. Then, the hearts were reperfused and, 30 min later, contractile functions (LVDP, HR and CF) were repeatedly measured. After reperfusion was accomplished for 30 min, LDH (lactate dehydrogenase) was measured with a kit as a sensitive index for loss of cell viability.

[2] = system: ischemic myocardial injury models prepared from white rats; assay: Antiischemic activity in the anesthetized rat ischemic myocardial injury model (coronary occlusion 45 min / reperfusion 90 min); type: in vivo; conditions: 0.3 mg/kg, intravenous (femoral vein), 30 min before occlusion
Experimental: 75 mg/kg of sodium pentobarbital was injected in abdominal cavity of white male rats (350-450 g, Laboratory Animal Division, Korea Research Institute of Chemical Technology) to anesthetize them. After performing tracheotomy, artificial respiration was induced by 10 ml/kg of stroke volume and 60/min. of heart rate. Cannula was inserted in each of vena fermoralis and aorta fermoralis, through which medicines were administered and blood pressure was measured. In the meantime, since body temperature in a ischemic myocardial injury model was very important factor, directly influencing a result, the temperature of a rat was always kept at 37° C. by using a probe for measuring body temperature inserted in rectum and homeothermic blanket control unit. Mean arterial blood pressure and heart rate (HR) of the rat were measured all through the experiments. Statham P23XL pressure transducer (Grass Ins., MA., USA) was used for measuring blood pressure and ECG/RATE Coupler (Hugo Sachs Electronic, Germany) was used for measuring HR. In addition, all the changes were recorded successively by graphtec linearcorder chart recorder (Graphtec Linearcorder WR 3310, Hugo Sachs Electronic).
According to the method of Selye H, left coronary aorta was occluded as follows. Left thoracotomy was induced. That is, the chest of a rat was a little opened. The right chest of the anesthetized rat was pressurized by the middle finger of left hand, so that the heart was pushed out. The heart was fixed gently by the thumb and the index finger of the left hand. A stitch was carefully put on a part including left anterior descending coronary artery by a suture needle with operating thread (5-0 silk ligature), and the heart was quickly positioned again in thoracic cavity. Then, both ends of operating thread were exposed outside. Both ends of operating thread were passed through PE tube (PE100, 2.5 cm) and left for 20 minutes for stabilization. A vehicle or a medicine was administered through the cannula inserted in femoral vein, which was left for 30 minutes in order for the medicine to work thoroughly. BMS-180448 was used for a control group and the dosage of each test medicine and a control medicine was 0.3 mg/kg each. […]
The coronary artery was reoccluded according to the above method and 2 ml of 1% Evans blue solution was administered by intravenous injection. […] The surface of each slice was inputted in a computer by using Hi-scope, a compact micro vision system, and Image pro plus program, from which both normal blood flow tissue area stained by blue and non-stained area on each slice were measured. The ratio of non-stained area to the gross area of each slice was calculated, by which the weight of each slice was multiplied to calculate AAR (area at risk) of each slice. […]

[3] = during 30 min global ischemia, first 5 mmHg increase in EDP

| Structure (SMILES) | LDH (concentration of lactate dehydogenase) [1] [unit/g] | EDP (left ventricular end diastolic pressure) [1] [mmHg] | TTC (time to induce contraction / time to contracture) [1, 3] [min] | LVDP × HR (left ventricular developed pressure × heart rate) [1] [%] | IZ/AAR(%) myocardial infarction size to area at risk [2] [%] | TTC (time to induce contraction / time to contracture) [1] [min] |
| --- | --- | --- | --- | --- | --- | --- |
| COC(OC)[C@]1(C)Oc2ccc([N+](=O)[O-])cc2[C@@H](n2c(=S)oc3ccccc32)[C@@H]1O [Example 2, (2R,3S,4R)-6-nitro-3,4-dihydro-3-hydroxy-2-dimethoxymethyl-2-methyl-4-(2-thioxobenzoxazol-3-yl)-2H-1-benzopyran] | 17.9 | 29.3 | 24.4 | 57.6 | – | – |
| COC(OC)[C@]1(C)Oc2ccc([N+](=O)[O-])cc2[C@H](n2c(=S)oc3cccc(C)c32)[C@H]1O [Example 6, (2R,3R,4S)-6-nitro-3,4-dihydro-3-hydroxy-2-dimethoxymethyl-2-methyl-4-(4-methyl-2-thioxobenzoxazol-3-yl)-2H-1-benzopyran] | 9.6 | 6.3 | 26.7 | 74.3 | 42.5 | – |
| COC(OC)[C@]1(C)Oc2ccc([N+](=O)[O-])cc2[C@H](n2c(=S)oc3ccccc32)[C@H]1O [Example 1, (2R,3R,4S)-6-nitro-3,4-dihydro-3-hydroxy-2-dimethoxymethyl-2-methyl-4-(2-thioxobenzoxazol-3-yl)-2H-1-benzopyran] | 4.6 | 19.8 | 25.3 | 53.8 | 39.6 | – |
| COC(OC)[C@]1(C)Oc2ccc([N+](=O)[O-])cc2[C@H](n2c(=S)oc3ccc(Cl)cc32)[C@H]1O [Example 7, (2R,3R,4S)-6-nitro-3,4-dihydro-3-hydroxy-2-dimethoxymethyl-2-methyl-4-(5-chloro-2-thioxobenzoxazol-3-yl)-2H-1-benzopyran] | 21.1 | 23.3 | 25.6 | 59.4 | – | – |
| COC(OC)[C@]1(C)Oc2ccc(N)cc2[C@@H](n2c(=S)oc3ccccc32)[C@@H]1O [Example 20, (2R,3S,4R)-6-amino-3,4-dihydro-3-hydroxy-2-dimethoxymethyl-2-methyl-4-(2-thioxobenzoxazol-3-yl)-2H-1-benzopyran] | 3.9 | 43.3 | 21.3 | 42.0 | – | – |
| COC(OC)[C@@]1(C)Oc2ccc([N+](=O)[O-])cc2[C@H](n2c(=S)oc3ccccc32)[C@H]1O [Example 3, (2S,3R,4S)-6-nitro-3,4-dihydro-3-hydroxy-2-dimethoxymethyl-2-methyl-4-(2-thioxobenzoxazol-3-yl)-2H-1-benzopyran] | 12.6 | 15.3 | 26.6 | 66.8 | – | – |
| COC(OC)[C@]1(C)Oc2ccc([N+](=O)[O-])cc2[C@H](n2c(=S)oc3ccc(C(F)(F)F)cc32)[C@H]1O [Example 16, (2R,3R,4S)-6-nitro-3,4-dihydro-3-hydroxy-2-dimethoxymethyl-2-methyl-4-(5-trifluoromethyl-2-thioxobenzoxazol-3-yl)-2H-1-benzopyran] | – | 13.3 | 26.5 | 79.3 | – | – |
| COC(OC)[C@]1(C)Oc2ccc([N+](=O)[O-])cc2[C@H](n2c(=S)oc3cc([N+](=O)[O-])ccc32)[C@H]1O [Example 9, (2R,3R,4S)-6-nitro-3,4-dihydro-3-hydroxy-2-dimethoxymethyl-2-methyl-4-(6-nitro-2-thioxobenzoxazol-3-yl)-2H-1-benzopyran] | 30.1 | 27.0 | – | 61.1 | – | 23.5 |
| COC(OC)[C@]1(C)Oc2ccc([N+](=O)[O-])cc2[C@H](n2c(=S)oc3cc(C)ccc32)[C@H]1O [Example 5, (2R,3R,4S)-6-nitro-3,4-dihydro-3-hydroxy-2-dimethoxymethyl-2-methyl-4-(6-methyl-2-thioxobenzoxazol-3-yl)-2H-1-benzopyran] | 20.2 | 21.0 | 29.0 | 47.4 | – | – |
| COC(OC)[C@]1(C)Oc2ccc(NC(=O)C(F)(F)F)cc2[C@H](n2c(=S)oc3ccccc32)[C@H]1O [Example 36, (2R,3R,4S)-6-trifluoroacetylamino-3,4-dihydro-3-hydroxy-2-dimethoxymethyl-2-methyl-4-(2-thioxobenzoxazol-3-yl)-2H-1-benzopyran] | – | 27.3 | 24.9 | 48.4 | – | – |
